Measured values as given in patent publication US4680283A, “Analogs of substance P and eledoisin” (Merck & Co., Inc., priority 1986, dated 1987).

Assays:
[1] = biological target: T1, 125I-BH-SP binding sites in rat brain cortex membranes (Rattus norvegicus, UniProt P14600); assay: substance P (SP) binding assay (competition for 125I-BH-SP binding sites); settings: peptides dissolved in DMSO
T1 construct: from tissue; host or cells: rat brain cortex membranes
Method: (§1) Representative compounds of this invention were tested in the substance P (SP) and eledoisin binding assays. The peptides were dissolved in DMSO and tested for their abilities to compete for ^125 I-BH-SP and ^125 I-BH-eledoison binding sites in rat brain cortex membranes (Cascieri and Liang, J. Biol. Chem., 258, 5158 (1983); Life Sciences, 35, 179 (1984)).
(§2) The following table summarizes the IC50 data obtained in both assay systems as well as showing the IC50 ratio for each peptide in the SP and eledoisin binding assays.

[2] = biological target: T2, 125I-BH-eledoisin binding sites in rat brain cortex membranes (Rattus norvegicus, UniProt P16177); assay: eledoisin binding assay (competition for 125I-BH-eledoisin binding sites); settings: peptides dissolved in DMSO
T2 construct: from tissue; host or cells: rat brain cortex membranes
T2 sequence (P16177 1-452): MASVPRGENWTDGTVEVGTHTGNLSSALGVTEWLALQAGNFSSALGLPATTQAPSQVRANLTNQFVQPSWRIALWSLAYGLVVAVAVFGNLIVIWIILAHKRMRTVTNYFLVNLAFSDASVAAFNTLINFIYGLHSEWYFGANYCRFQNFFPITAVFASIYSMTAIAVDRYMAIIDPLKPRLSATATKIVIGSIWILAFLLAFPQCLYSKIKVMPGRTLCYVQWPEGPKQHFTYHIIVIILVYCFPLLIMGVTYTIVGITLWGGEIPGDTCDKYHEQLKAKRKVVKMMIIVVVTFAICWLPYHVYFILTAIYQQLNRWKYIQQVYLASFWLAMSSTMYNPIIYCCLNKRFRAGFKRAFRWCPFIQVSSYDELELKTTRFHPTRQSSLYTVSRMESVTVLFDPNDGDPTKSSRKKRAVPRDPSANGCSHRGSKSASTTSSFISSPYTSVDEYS
Method: as §1, §2

T1 sequence (P14600 whole entry): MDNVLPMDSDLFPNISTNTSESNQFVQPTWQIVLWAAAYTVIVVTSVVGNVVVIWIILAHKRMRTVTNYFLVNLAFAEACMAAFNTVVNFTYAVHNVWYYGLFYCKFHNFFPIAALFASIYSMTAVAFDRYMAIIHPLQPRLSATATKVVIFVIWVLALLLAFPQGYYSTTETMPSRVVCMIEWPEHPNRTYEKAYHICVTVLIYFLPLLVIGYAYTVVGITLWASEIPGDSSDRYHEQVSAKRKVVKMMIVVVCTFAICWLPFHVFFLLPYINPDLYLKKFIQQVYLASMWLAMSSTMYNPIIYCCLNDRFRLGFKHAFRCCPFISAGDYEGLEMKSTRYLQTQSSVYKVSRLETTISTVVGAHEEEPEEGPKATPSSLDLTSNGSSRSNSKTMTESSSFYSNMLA

Row | SMILES | IC50 [1] [µM] | IC50 [2] [µM]
1 | CSCC[C@H](NC(=O)[C@H](CC(C)C)N1CC[C@H](NC(=O)[C@H](Cc2ccccc2)NC(=O)[C@H](Cc2ccccc2)NC(=O)[C@@H]2CCC(=O)N2)C1=O)C(N)=O [L-363,232] | 60 | 32
2 | CSCC[C@H](NC(=O)[C@H](CC(C)C)N1CC[C@@H](NC(=O)[C@H](Cc2ccccc2)NC(=O)[C@H](Cc2ccccc2)NC(=O)[C@@H]2CCC(=O)N2)C1=O)C(N)=O [L-363,851, Pyroglutamyl-phenylalanyl-phenylalanyl-[(R)-3-amino-2-oxo-1-pyrrolidine-(S)-4-methyl-2-pentanoyl]-methionine amide] | 13 | 0.014
